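All cell lines were grown in 96-well plates and treated with compound for 48 hours. GI50 marks 50% less growth. Definition used: TGI = concentration required for complete inhibition of growth.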
Test system: MDA-MB-468 breast
Test: NCI tumour cell line growth inhibition, 48 h

For `O=C1C=C(OCC=C(Cl)Cl)C(=O)c2ccccc21`, the GI50 was 1.05 µM and the TGI was 3.6 µM.
Molecule `NS(=O)(=O)c1ccc(N=Nc2c(=O)[nH]c3ccc4[nH]cccc4c23)cc1` has a GI50 of 0.0733 µM and a TGI of 0.257 µM.
In the case of `COc1cc[nH]c1/C=C1\C(=O)Nc2ccc([N+](=O)[O-])c(N3CC[C@@H](O)C3)c21`, the GI50 is reported as 0.352 µM and the TGI is reported as 0.995 µM.
With `CN1CCN(Cc2ccc(NC(=O)c3[nH]ncc3Nc3cc(OC4CCCC4)ncn3)cc2)CC1` the GI50 was 1.98 µM and the TGI was 4.77 µM.
`COc1cc(OC)c2c(c1Cl)O[C@]1(C2=O)C(OCc2ccccc2)=CC(=O)C[C@H]1C` was tested, and the GI50 was 0.741 µM and the TGI was 47.5 µM.
Work on `COc1ccc2c(c1)NC(=O)CN2c1nc(C)nc2ccccc12` yielded a GI50 of 0.000415 µM.
Molecule `CC1(C)N=C(N)N=C(N)N1c1ccc(CCC(=O)Nc2cccc(S(=O)(=O)F)c2)cc1` has a GI50 of 1.31 µM and a TGI of over 100 µM.
In the case of `COC(=O)[C@]1(C)CC[C@]2(C)CC[C@]3(C)C(=CC(=O)[C@@H]4[C@@]5(C)CCC(=O)NC(C)(C)[C@@H]5CC[C@]43C)[C@@H]2C1`, the GI50 is reported as 18.3 µM and the TGI is reported as 64.2 µM.
Work on `COc1ccc(-c2c(C#N)cnc(N)c2-c2nc3cc(C)c(C)cc3[nH]2)cc1` yielded a GI50 of 6.22 µM and a TGI of 23.1 µM.
`C[C@H](c1ccc(Cl)cc1[N+](=O)[O-])N1C(=O)c2cc(I)ccc2NC(=O)[C@H]1c1ccc(Cl)cc1` showed a GI50 of 16.6 µM and a TGI of over 100 µM.
Work on `COC(=O)CCc1c(/C=C2\N=C(c3ccc[nH]3)C=C2OC)[nH]c(C)c1C(=O)OCc1ccccc1` yielded a GI50 of 0.842 µM and a TGI of 4.4 µM.
`CNCC1CCn2c(c(C3=C(c4cn(C)c5ccccc45)C(=O)NC3=O)c3ccccc32)C1` (centres undefined) was tested, and the GI50 was 2.62 µM and the TGI was 6.58 µM.
In the case of `CC(CNc1nc(Nc2ccc(Cl)c(Cl)c2)nc(C(Cl)(Cl)Cl)n1)N(C)C` (centres undefined), the GI50 is reported as 1.47 µM and the TGI is reported as 2.85 µM.
Molecule `CN(C)CCNC(=O)c1ccc(-c2nc3ccc4[nH]ncc4c3c3c2COCC3)cc1` has a GI50 of 0.169 µM and a TGI of 0.36 µM.
Work on `CCC(=O)Oc1ccc(/C=N/NC(N)=S)nc1` yielded a GI50 of 1.97 µM and a TGI of 7.22 µM.
`NC(N)=N/N=C/c1ccc(Br)cc1` showed a GI50 of 1.5 µM and a TGI of 4.81 µM.
Molecule `CN1C(=O)C(C)(C)Oc2c(-c3cn(C)c(=O)c4[nH]ccc34)cc(S(C)(=O)=O)cc21` has a GI50 of 0.551 µM and a TGI of 3.7 µM.
`CCC(=O)OCN1C(=O)C=CC1=O` showed a GI50 of 14.1 µM and a TGI of 32.4 µM.
With `O=S1(=O)C=C(c2ccccc2)C(c2ccccc2)=C1` the GI50 was 1.14 µM and the TGI was 2.46 µM.
`COc1ccc(-c2cc3c(N)ncnc3o2)cc1` gave a GI50 of over 25 µM and a TGI of over 25 µM.
Molecule `Nc1nc(N)c(-c2ccc(Cl)cc2)c(/C=C/c2ccc([N+](=O)[O-])cc2)n1` has a GI50 of 3.02 µM and a TGI of over 100 µM.
In the case of `COc1ccccc1/C=C/C=N/NC1=NC2C(S1)N(C)C(=O)N2c1ccccc1` (centres undefined), the GI50 is reported as 0.428 µM and the TGI is reported as 31 µM.
For `COc1ccc(/C=C/C(=O)/C=C(/C=C/c2ccc(OC)c(OC)c2OC)OB(F)F)c(OC)c1OC`, the GI50 was 2.57 µM and the TGI was 9.65 µM.
With `CC(=O)N1c2ccc(-c3ccc(C(=O)O)cc3)cc2[C@H](Nc2ccc(Cl)cc2)C[C@@H]1C` the GI50 was 0.131 µM and the TGI was 17.3 µM.
In the case of `O=C1/C(=C/c2cccc(F)c2)CN(C(=O)C(Cl)Cl)C/C1=C\c1cccc(F)c1`, the GI50 is reported as 0.207 µM and the TGI is reported as 0.529 µM.
